The structures appear in SMILES notation. pIC50: −log10 of the molar value.

The target of this experiment is T1, ERK2 (Homo sapiens, UniProt P28482).
T1 construct: purchased R&D 1879-KS-010
T1 sequence (P28482 2-360 limits assumed): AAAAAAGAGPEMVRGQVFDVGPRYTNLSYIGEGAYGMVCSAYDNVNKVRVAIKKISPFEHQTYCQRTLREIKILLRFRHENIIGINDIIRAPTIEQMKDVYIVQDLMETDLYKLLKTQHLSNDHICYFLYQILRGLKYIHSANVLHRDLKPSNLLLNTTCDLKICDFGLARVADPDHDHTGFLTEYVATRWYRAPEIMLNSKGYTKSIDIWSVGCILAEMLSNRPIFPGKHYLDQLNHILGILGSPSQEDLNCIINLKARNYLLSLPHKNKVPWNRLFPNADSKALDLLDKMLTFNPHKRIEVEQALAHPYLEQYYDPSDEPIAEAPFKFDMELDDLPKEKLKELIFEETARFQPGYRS
Description: ERK2 enzyme activity test (ADP-Glo Kinase Assay). It counts as biochemical. To be noted: ADP-Glo chemiluminescence. The method, then:
The purpose of this experiment is to detect the inhibitory ability of the compounds of the present disclosure on the ERK2 enzyme activity, and to evaluate the in vitro activity of the compounds based on the IC50. The ADP-Glo™ Kinase Assay Kit was used in this experiment. The substrate was phosphorylated under the action of the enzyme and ADP was produced at the same time. The ADP-Glo reagent was added to remove the unreacted ATP in the reaction system, and the ADP produced by the reaction was detected with kinase detection reagent. In the presence of the compound, the inhibition rate of the compound was calculated by measuring the signal value.
Preparation of enzyme and substrate: ERK2 (1879-KS-010, R&D) and substrate (custom peptide, Gill Biochemical) were prepared to 0.75 ng/ml and 1500 μM in a buffer (40 mM Tris, 20 mM MgCl2, 0.1 mg/ml BSA, 50 μM DTT), and then the enzyme solution and the substrate solution were prepared into a mixed solution at a volume ratio of 2:1 for later use. ATP was diluted to 500 μM with buffer. The compound was dissolved in DMSO (dimethyl sulfoxide, Shanghai Titan Scientific Co., Ltd.) to prepare a stock solution with an initial concentration of 20 mM, and then Bravo was used to prepare the compound. Finally, 3 μL of a mixed solution of enzyme and substrate, and 1 μL substrate of different concentrations of the compound (the initial concentration is 50 μM, 4-fold dilution) were added to each well of the 384-well plate, and the plate was incubated at 30° C. for 10 minutes, and finally 1 μL 500 μM ATP solution was added to each well, and the plate was incubated at 30° C. for 2 hours. Then 5 μL of ADP-Glo was added, and the plate was incubated at 30° C. for 40 minutes. Then 10 μL of kinase detection buffer was added, and the plate was incubated at 30° C. for 40 minutes. The 384-well plate was taken out and placed in a microplate reader (BMG labtech, PHERAstar FS), and the chemiluminescence was measured by a microplate reader.
Microsoft Excel, Graphpad Prism 5 was used to process and analyze the data.
Background: In ADP-Glo the light output rises with the ADP produced.
For the compound `COc1cc(F)cc([C@@H](CO)NC(=O)[C@H](C)N2CCc3cc(-c4nc(Nc5ccnn5C)ncc4C)cn3C2=O)c1` [Example 1-P1, (S)-N-((S)-1-(3-Fluoro-5-methoxyphenyl)-2-hydroxyethyl)-2-(6-(5-methyl-2-((1-methyl-1H-pyrazol-5-yl)amino)pyrimidin-4-yl)-1-oxo-3,4-dihydropyrrolo[1,2-c]pyrimidin-2(1H)-yl)propanamide], the pIC50 was 6.09.

Take `COc1cc(F)cc([C@@H](CO)NC(=O)[C@H](C)N2CCc3cc(-c4nc(NC5CCOCC5)ncc4Cl)cn3C2=O)c1` [Example 2-P1, (S)-2-(6-(5-Chloro-2-((tetrahydro-2H-pyran-4-yl)amino)pyrimidin-4-yl)-1-oxo-3,4-dihydropyrrolo[1,2-c]pyrimidin-2(1H)-yl)-N-((S)-1-(3-fluoro-5-methoxyphenyl)-2-hydroxyethyl)propanamide]: the pIC50 is 6.47.

In the case of `COc1cc(F)cc([C@@H](CO)NC(=O)[C@H](C)N2CCn3cc(-c4nc(NC5CCOCC5)ncc4Cl)cc3C2=O)c1` [Example 4-P1, (S)-2-(7-(5-Chloro-2-((tetrahydro-2H-pyran-4-yl)amino)pyrimidin-4-yl)-1-oxo-3,4-dihydropyrrolo[1,2-a]pyrazin-2(1H)-yl)-N-((S)-1-(3-fluoro-5-methoxyphenyl)-2-hydroxyethyl)propanamide], the pIC50 is 6.09.

Compound `Cc1cccc([C@@H](CO)NC(=O)C(C)N2CCn3cc(-c4nc(NC5CCOCC5)ncc4Cl)nc3C2=O)c1` (stereo partly drawn) [Example 5, 2-(2-(5-Chloro-2-((tetrahydro-2H-pyran-4-yl)amino)pyrimidin-4-yl)-8-oxo-5,6-dihydroimidazo[1,2-a]pyrazin-7(8H)-yl)-N-((S)-2-hydroxy-1-(m-tolyl)ethyl)propanamide] had a pIC50 of 8.44.

Compound `COc1cc(F)cc([C@@H](CO)NC(=O)[C@H](C)N2Cc3cc(-c4nc(NC5CCOCC5)ncc4Cl)cn3C2=O)c1` [Example 6-P1, (S)-2-(6-(5-Chloro-2-((tetrahydro-2H-pyran-4-yl)amino)pyrimidin-4-yl)-3-oxo-1H-pyrrolo[1,2-c]imidazol-2(3H)-yl)-N-((S)-1-(3-fluoro-5-methoxyphenyl)-2-hydroxyethyl)propanamide] showed a pIC50 of 5.59.

The compound `COc1cc(F)cc([C@@H](CO)NC(=O)[C@H](C)N2Cc3cc(-c4nc(Nc5ccnn5C)ncc4C)cn3C2=O)c1` [Example 8-P1, (S)-N-((S)-1-(3-Fluoro-5-methoxyphenyl)-2-hydroxyethyl)-2-(6-(5-methyl-2-((1-methyl-1H-pyrazol-5-yl)amino)pyrimidin-4-yl)-3-oxo-1H-pyrrolo[1,2-c]imidazol-2(3H)-yl)propanamide] showed a pIC50 of 5.67.

In the case of `COc1cc(F)cc([C@@H](CO)NC(=O)[C@@H](C)N2Cc3cc(-c4nc(Nc5ccnn5C)ncc4C)cn3C2=O)c1` [Example 8-P2, (R)-N-((S)-1-(3-Fluoro-5-methoxyphenyl)-2-hydroxyethyl)-2-(6-(5-methyl-2-((1-methyl-1H-pyrazol-5-yl)amino)pyrimidin-4-yl)-3-oxo-1H-pyrrolo[1,2-c]imidazol-2(3H)-yl)propanamide], the pIC50 was 7.59.

The compound `Cc1cccc([C@@H](CO)NC(=O)[C@H](C)N2CCc3cc(-c4nc(NC5CCOCC5)ncc4Cl)cn3C2=O)c1` [Example 11-P1, (S)-2-(6-(5-Chloro-2-((tetrahydro-2H-pyran-4-yl)amino)pyrimidin-4-yl)-1-oxo-3,4-dihydropyrrolo[1,2-c]pyrimidin-2(1H)-yl)-N-((S)-2-hydroxy-1-(m-tolyl)ethyl)propanamide] had a pIC50 of 7.12.

The compound `COc1cc(F)cc([C@@H](CO)NC(=O)[C@H](C)N2CCn3cc(-c4nc(Nc5ccnn5C)ncc4C)cc3C2=O)c1` [Example 12-P1, (S)-N-((S)-1-(3-Fluoro-5-methoxyphenyl)-2-hydroxyethyl)-2-(7-(5-methyl-2-((1-methyl-1H-pyrazol-5-yl)amino)pyrimidin-4-yl)-1-oxo-3,4-dihydropyrrolo[1,2-a]pyrazin-2(1H)-yl)propanamide] showed a pIC50 of 6.02.

As usually defined, the pIC50 is the negative decadic logarithm of the IC50, by convention in mol/L. Lower therefore signals a large IC50.

The values above are taken from US20220204512A1, “SUBSTITUTED FUSED BICYCLIC DERIVATIVE, PREPARATION METHOD THEREFOR, AND APPLICATION THEREOF IN MEDICINES” (Jiangsu Hengrui Medicine Co., Ltd., priority 2019, published 2022).
